Test results as given in publication PMC8868586, “Comparison of Various Solvent Extracts and Major Bioactive Components from Unsalt-Fried and Salt-Fried Rhizomes of Anemarrhena asphodeloides for Antioxidant, Anti-α-Glucosidase, and Anti-Acetylcholinesterase Activities” (Antioxidants, 2022).
pIC50: −log10 of the molar value. Like-named read-outs stand apart in the source and are kept apart here.

Assays:
[1] = DPPH radical scavenging assay
Description: The DPPH radical scavenging assay was measured by the reference method.
(§1) ABTS and DPPH assays have been widely utilized to assess the antioxidant activities of natural components. Both assays are mostly connected with the proton radical scavenging or hydrogen donating capacities of the target compounds [29]. Superoxide radical scavenging activity is measured by the PMS/NADH–NBT system. Superoxide anion radicals generated from dissolved oxygen by PMS/NADH coupling reaction reduce NBT. The decrease in absorbance at 560 nm with antioxidants indicates a reduction in superoxide anion radicals in the reaction mixture. The ferric-reducing antioxidant power (FRAP) measures the antioxidant potential of each extract through the reduction of ferric iron (Fe^3+) complex to ferrous iron (Fe^2+) complex by antioxidants present in the samples [31].

[2] = ABTS radical scavenging assay
Description: ABTS radical scavenging activity of each extract was determined as previously described.
as §1

[3] = Ferric-reducing antioxidant power (FRAP) assay
Description: The FRAP assay was determined by the reference method with a slight modification. The working solution was mixed with acetate buffer (pH 3.6), ferric chloride solution (20 mM), and TPTZ solution (10 mM TPTZ in 40 mM HCl) in a proportion of 10:1:1, respectively, and freshly prepared before being used. A total of 900 μL of the working solution was warmed to 37 °C and then mixed with 100 μL of the diluted sample, blank or standard, in a microcentrifuge tube. The tubes were vortexed in a dry bath at 37 °C for 40 min. The absorbance was measured at 593 nm. The standard curve was linear between 0 and 100 mM Trolox. Results are expressed in mM TE/g dry weight. Additional dilution was needed if the FRAP value measured was over the linear range of the standard curve.
as §1

[4] = molecular target: T1, acetylcholinesterase (AChE) (Homo sapiens, UniProt P22303); assay: biochemical; settings: pure compounds; read-out: AchE Inhibitory Assay IC50 (converted)
T1 construct: purchased Sigma-Aldrich
T1 sequence (P22303 32-614): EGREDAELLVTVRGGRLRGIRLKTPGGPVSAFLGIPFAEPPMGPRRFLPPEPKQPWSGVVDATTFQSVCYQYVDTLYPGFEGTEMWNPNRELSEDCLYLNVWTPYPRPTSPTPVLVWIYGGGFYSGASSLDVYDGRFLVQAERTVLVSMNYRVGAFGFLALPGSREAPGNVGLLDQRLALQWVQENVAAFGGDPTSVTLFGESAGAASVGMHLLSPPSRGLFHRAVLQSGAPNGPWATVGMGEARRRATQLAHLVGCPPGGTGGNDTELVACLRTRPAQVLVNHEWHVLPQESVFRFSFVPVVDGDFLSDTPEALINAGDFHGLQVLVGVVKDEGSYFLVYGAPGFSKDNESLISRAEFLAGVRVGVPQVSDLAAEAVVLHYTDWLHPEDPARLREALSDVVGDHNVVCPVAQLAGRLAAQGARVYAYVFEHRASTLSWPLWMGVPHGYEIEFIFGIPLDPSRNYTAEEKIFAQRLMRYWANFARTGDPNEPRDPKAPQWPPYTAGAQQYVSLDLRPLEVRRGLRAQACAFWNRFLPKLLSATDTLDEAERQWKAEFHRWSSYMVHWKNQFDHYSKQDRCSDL
Description: The inhibition assay of acetylcholinesterase was conducted using the conditions previously reported with slight modifications. Briefly, 0.1 M sodium phosphate buffer (pH 8.0, 140 μL), test compound solution (20 μL), enzyme solution (15 μL of AChE 0.2 units/mL solution), and DTNB (15 mM, 10 μL) were mixed and incubated for 10 min at room temperature. Substrate (10 μL of AchI 15 mM solution) was then added and the reaction was initiated.

α-glucosidase = molecular target: T2, α-glucosidase (Saccharomyces cerevisiae, UniProt P53341); assay: α-Glucosidase inhibitory activity assay; assay type: biochemical; settings: for IC50: pure compounds, read-out: α-Glucosidase IC50 (converted)
T2 construct: purchased Sigma-Aldrich
T2 sequence (P53341 whole entry): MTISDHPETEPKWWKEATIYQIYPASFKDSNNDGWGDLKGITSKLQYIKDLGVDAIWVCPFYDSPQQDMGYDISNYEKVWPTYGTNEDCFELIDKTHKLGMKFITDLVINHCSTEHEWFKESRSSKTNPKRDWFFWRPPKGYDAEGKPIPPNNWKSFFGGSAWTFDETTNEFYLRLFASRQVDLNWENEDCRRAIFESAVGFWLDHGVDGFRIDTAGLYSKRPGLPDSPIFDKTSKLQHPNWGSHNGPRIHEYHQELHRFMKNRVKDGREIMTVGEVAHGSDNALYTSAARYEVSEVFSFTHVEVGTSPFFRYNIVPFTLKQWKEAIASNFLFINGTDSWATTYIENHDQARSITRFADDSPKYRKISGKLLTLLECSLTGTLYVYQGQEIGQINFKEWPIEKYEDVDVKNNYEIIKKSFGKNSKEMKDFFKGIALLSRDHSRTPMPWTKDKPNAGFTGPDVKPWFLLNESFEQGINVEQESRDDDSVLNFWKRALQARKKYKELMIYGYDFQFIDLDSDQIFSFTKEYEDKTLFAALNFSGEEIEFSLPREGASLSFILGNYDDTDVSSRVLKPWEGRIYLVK
Description: The inhibition assay of α-glucosidase was conducted using the procedure previously reported.

[5] = Superoxide radical scavenging assay (PMS/NADH-NBT system); settings: isolated components
Description: Superoxide anion radical (O2^•–) scavenging activity was measured using the previously described method.
as §1

[6] = solvent extracts of AA (non-salt-fried) series
[7] = solvent extracts of salt-fried AA series
[8] = Trolox equivalents per gram, isolated components

Row | Structure (SMILES) | DPPH IC50 ([1]; isolated components) | DPPH IC50 [1, 6] | DPPH IC50 [1, 7] | ABTS IC50 ([2]; isolated components) | ABTS IC50 [2, 6] | ABTS IC50 [2, 7] | FRAP (TE) ([3]; Trolox equivalents per gram of extract, AA (non-salt-fried) series) | FRAP (TE) ([3]; Trolox equivalents per gram of extract, salt-fried AA series) | FRAP (TE) [3, 8] | IC50 [4] | pIC50 (α-glucosidase) | Superoxide IC50 [5] | potency against α-glucosidase relative to acarbose (α-glucosidase; fold stronger than acarbose) | IC50 (α-glucosidase)
1 | Cc1cc(C(C)(C)C)c(O)c(C(C)(C)C)c1 [BHT, Butylated hydroxytoluene, reference compound] | 27.2 ± 1.9 µg/mL | 35.5 ± 0.6 µg/mL | 39.7 ± 1.4 µg/mL | 15.4 ± 0.9 µg/mL | 20.6 ± 0.2 µg/mL | 19.6 ± 0.4 µg/mL | 4297.0 ± 48.4 mM/g | 4216.1 ± 66.5 mM/g | 3963.9 ± 104.0 mM/g |  |  |  |  | 
2 | O=c1c2cc(O)c(O)cc2oc2c([C@@H]3O[C@H](CO)[C@@H](O)[C@H](O)[C@H]3O)c(O)cc(O)c12 [Isomangiferin, isomangiferin] | 16.7 ± 1.1 µg/mL |  |  | 5.6 ± 0.4 µg/mL |  |  |  |  | 6359.9 ± 176.8 mM/g | 227 µM | 3.36 | 155.3 ± 13.8 µg/mL |  | 
3 | O=c1c2cc(O)c(O)cc2oc2cc(O)c([C@@H]3O[C@H](CO)[C@@H](O)[C@H](O)[C@H]3O)c(O)c12 [Mangiferin, mangiferin] | 5.4 ± 0.3 µg/mL |  |  | 3.7 ± 0.2 µg/mL |  |  |  |  | 9371.4 ± 183.9 mM/g | 161 µM |  | 53.8 ± 2.4 µg/mL | about five-fold | 146 µM
4 | O=c1c2cc(O[C@@H]3O[C@H](CO)[C@@H](O)[C@H](O)[C@H]3O)c(O)cc2oc2cc(O)c([C@@H]3O[C@H](CO)[C@@H](O)[C@H](O)[C@H]3O)c(O)c12 [Neomangiferin, neomangiferin] | >200 µg/mL |  |  | 81.9 ± 4.6 µg/mL |  |  |  |  | 83.1 ± 5.3 mM/g | 121 µM | < 3.16 | >200 µg/mL |  | 
5 | C[C@H]1CC[C@@]2(OC1)O[C@H]1C[C@H]3[C@@H]4CC[C@@H]5C[C@@H](O[C@@H]6O[C@H](CO)[C@H](O)[C@H](O)[C@H]6O[C@@H]6O[C@H](CO)[C@@H](O)[C@H](O)[C@H]6O)CC[C@]5(C)[C@H]4CC[C@]3(C)[C@H]1[C@@H]2C [Timosaponin A-III, timosaponin A-III] | >200 µg/mL |  |  | >200 µg/mL |  |  |  |  | 19.5 ± 3.9 mM/g | 179 µM |  | >200 µg/mL |  | 97.9 µM
